Patent US11519913B2, “Metabolic disorder target” (University of Pittsburgh—Of the Commonwealth System of …, priority 2016, dated 2022)

Tested on: kinases
Assay: Streamlined CETSA / dMS workflow with staurosporine
Assay type: binding
Conditions: staurosporine treated vs untreated samples
From the text: Initial experiments were designed to employ the ATP inhibitor staurosporine. Staurosporine is well documented as binding several different kinases, and so offers an a priori known binding event for study and method workup. The workflow for CETSA was streamlined. These improvements are based on two advantages: the use of factory made long heated columns for excellent chromatographic, and therefore sample to sample reproducibility, and the cloud computing platform, Chorus, which allows for the alignment and quantification of hundreds of thousands of mass spectrometric signals without the need to first identify said signals, see U.S. Pat. No. 6,906,320 “Mass Spectrometry Data Analysis Techniques,” incorporated herein by reference.
In the staurosporine analysis, the dMS workflow detected 270,822 features that were associated with 108,594 isotope groups. […] An important and distinguishing feature of the dMS workflow is that results are ranked on the basis of the quantitative data, and significant features may then be identified directly by reanalysis of the sample and acquisition of a MS2 spectrum with a retention time and m/z that matches the features of interest. This quantify first, identify second strategy greatly enhances the depth and precision of proteomic analysis compared to workflows that emphasize peptide identification rates. […]

CN[C@@H]1C[C@H]2O[C@@](C)([C@@H]1OC)n1c3ccccc3c3c4c(c5c6ccccc6n2c5c31)C(=O)NC4 [staurosporine]
Features at significance lower than p<0.0001, drug treated versus vehicle, that belong to kinases: 13 out of 16 belonged to kinases
